# Experimental data from patent US20110082130A1 (LIGAND PHARMACEUTICALS, INC., priority 2006, published 2011).
# Molecular target: T1, chimeric human H3 receptor (Homo sapiens, UniProt Q9Y5N1)
# T1 construct: made in house; host or cells: Sf9 insect cells (baculovirus); P2 membrane preparation
# Assay: Chimeric human H3 receptor GTP binding assay (agonist-stimulated GTP-gamma35S binding, Example 7)
# Assay type: biochemical
# Settings: Table I; P2 membranes of Sf9 cells, 1 μM histamine as agonist, Ki from IC50 by Cheng-Prusoff
# How it was run: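 Sf9 membranes co-expressing chimeric human H3 receptor and heterotrimeric G-protein, 35 μg/tube, in pH 7.4 Tris buffer with 10 μM GDP. Test compounds (10^−10–10^−6 M) competed against 1 μM histamine, […] GTP-gamma35S, 60 min at room temperature. Filter-bound radioactivity counted; IC50 converted to Ki by Cheng-Prusoff. Agonism/inverse agonism tested without histamine (EC50).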
# T1 sequence (Q9Y5N1 with tags, fused parts or gaps): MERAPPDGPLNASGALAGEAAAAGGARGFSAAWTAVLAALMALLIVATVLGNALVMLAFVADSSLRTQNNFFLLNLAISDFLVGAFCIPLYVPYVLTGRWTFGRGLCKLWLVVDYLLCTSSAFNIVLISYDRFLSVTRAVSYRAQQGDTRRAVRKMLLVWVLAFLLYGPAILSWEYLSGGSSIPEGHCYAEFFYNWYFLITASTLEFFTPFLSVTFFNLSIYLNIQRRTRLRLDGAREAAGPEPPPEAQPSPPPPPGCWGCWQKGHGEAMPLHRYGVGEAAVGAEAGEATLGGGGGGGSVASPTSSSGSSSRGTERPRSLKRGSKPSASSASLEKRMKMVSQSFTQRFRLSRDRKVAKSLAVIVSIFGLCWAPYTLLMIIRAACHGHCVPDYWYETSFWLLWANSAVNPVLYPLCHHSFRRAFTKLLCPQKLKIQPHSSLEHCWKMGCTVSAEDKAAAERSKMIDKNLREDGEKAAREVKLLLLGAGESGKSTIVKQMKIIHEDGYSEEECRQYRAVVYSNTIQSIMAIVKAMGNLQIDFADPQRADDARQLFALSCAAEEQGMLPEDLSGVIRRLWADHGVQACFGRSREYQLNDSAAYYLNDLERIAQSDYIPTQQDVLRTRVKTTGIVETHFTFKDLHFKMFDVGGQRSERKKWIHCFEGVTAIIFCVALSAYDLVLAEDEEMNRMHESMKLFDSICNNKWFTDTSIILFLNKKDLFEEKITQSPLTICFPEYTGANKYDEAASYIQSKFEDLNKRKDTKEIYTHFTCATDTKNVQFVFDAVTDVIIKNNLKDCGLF
row,Structure (SMILES),Ki [µM]
1,"CC(C)N1CCN(C(=O)CN2CCc3ccccc3C2CC2CCCC2)CC1 (stereo not drawn) [Compound 54, 1-(cyclopentylmethyl)-2-[2-(4-isopropylpiperazin-1-yl)-2-oxoethyl]-1,2,3,4-tetrahydroisoquinoline]",< 1

# Same assay, conditions: Table II "Ki", symbol *; assay of Example 7
row,Structure (SMILES),Ki [µM]
1,"CCCC(C)Nc1ccc2c(n1)CCN(CC(=O)N1CCN(C3CCC3)CC1)C2 (stereo not drawn) [Compound 657, 6-[2-(4-cyclobutylpiperazin-1-yl)-2-oxoethyl]-N-(1-methylbutyl)-5,6,7,8-tetrahydro-1,6-naphthyridin-2-amine]",< 1
2,"CN(C)Cc1cccc(-c2ccc3c(c2)CCN(CC(=O)N2CCN(C4CCC4)CC2)C3)c1 [Compound 641, 1-(3-{2-[2-(4-cyclobutylpiperazin-1-yl)-2-oxoethyl]-1,2,3,4-tetrahydroisoquinolin-6-yl}phenyl)-N,N-dimethylmethanamine]",< 1
3,"COc1cc(F)c(-c2ccc3c(c2)CCN(CC(=O)N2CCN(C4CCCC4)CC2)C3)cc1F [Compound 507, 2-[2-(4-cyclopentylpiperazin-1-yl)-2-oxoethyl]-6-(2,5-difluoro-4-methoxyphenyl)-1,2,3,4-tetrahydroisoquinoline]",< 1
4,"COC[C@@H]1CCCN1c1ccc2c(n1)CCN(CC(=O)N1CCN(C3CCC3)CC1)C2 [Compound 678, 6-[2-(4-cyclobutylpiperazin-1-yl)-2-oxoethyl]-2-[(2S)-2-(methoxymethyl)pyrrolidin-1-yl]-5,6,7,8-tetrahydro-1,6-naphthyridine]",< 1
5,"COc1cccc(-c2ccc3c(c2)CCN(CC(=O)N2CCN(C4CCC4)CC2)C3)n1 [Compound 633, 2-[2-(4-cyclobutylpiperazin-1-yl)-2-oxoethyl]-6-(6-methoxypyridin-2-yl)-1,2,3,4-tetrahydroisoquinoline]",< 1
6,"COCCNc1ccc2c(n1)CCN(CC(=O)N1CCN(C3CCC3)CC1)C2 [Compound 663, 6-[2-(4-cyclobutylpiperazin-1-yl)-2-oxoethyl]-N-(2-methoxyethyl)-5,6,7,8-tetrahydro-1,6-naphthyridin-2-amine]",< 1
7,"Cc1cccc(-c2ccc3c(c2)CCN(CC(=O)N2CCN(C4CCC4)CC2)C3)n1 [Compound 628, 2-[2-(4-cyclobutylpiperazin-1-yl)-2-oxoethyl]-6-(6-methylpyridin-2-yl)-1,2,3,4-tetrahydroisoquinoline]",< 1

# Same assay, conditions: Table II; "*" = Ki in assay of Example 7 less than 1 micromolar
row,Structure (SMILES),Ki [µM]
1,"O=C(CN1CCc2nc(N3CCCC3)ncc2C1)N1CCN(C2CCC2)CC1 [Compound 204, 6-[2-(4-cyclobutylpiperazin-1-yl)-2-oxoethyl]-2-pyrrolidin-1-yl-5,6,7,8-tetrahydropyrido[4,3-d]pyrimidine]",< 1
2,"CC1CCC[C@H]2CN(C(=O)CN3CCc4nc(N5CCOCC5)ncc4C3)CCN12 (stereo partly drawn) [Compound 186, 6-[2-(6-methyloctahydro-2H-pyrido[1,2-a]pyrazin-2-yl)-2-oxoethyl]-2-morpholin-4-yl-5,6,7,8-tetrahydropyrido[4,3-d]pyrimidine]",< 1
3,"CC(C)(C)c1ncc2c(n1)CCN(CC(=O)N1CCN(C3CCC3)CC1)C2 [Compound 277, 2-tert-butyl-6-[2-(4-cyclobutylpiperazin-1-yl)-2-oxoethyl]-5,6,7,8-tetrahydropyrido[4,3-d]pyrimidine]",< 1
4,"N#Cc1cncc(-n2cc3c(n2)CCN(CC(=O)N2CCN(C4CCC4)CC2)C3)n1 [Compound 271, 6-{5-[2-(4-cyclobutylpiperazin-1-yl)-2-oxoethyl]-4,5,6,7-tetrahydro-2H-pyrazolo[4,3-c]pyridin-2-yl}pyrazine-2-carbonitrile]",< 1
5,"O=C(CN1CCc2cc(OCc3ccccc3)ccc2C1)N1CCN(C2CCC2)CC1 [Compound 194, 6-(benzyloxy)-2-[2-(4-cyclobutylpiperazin-1-yl)-2-oxoethyl]-1,2,3,4-tetrahydroisoquinoline]",< 1
6,"O=C(CN1CCc2nc(N3CCOCC3)cnc2C1)N1CCN(C2CCC2)CC1 [Compound 240, 6-[2-(4-cyclobutylpiperazin-1-yl)-2-oxoethyl]-2-morpholin-4-yl-5,6,7,8-tetrahydropyrido[3,4-b]pyrazine]",< 1
7,"CCC(CC)N1CCN(C(=O)CN2CCc3cc(-c4cncnc4)ccc3C2)CC1 [Compound 145, 2-{2-[4-(1-ethylpropyl)piperazin-1-yl]-2-oxoethyl}-6-pyrimidin-5-yl-1,2,3,4-tetrahydroisoquinoline]",< 1
8,"COc1ccc(-c2ccc3c(n2)CCN(CC(=O)N2CCN4C(C)CCC[C@H]4C2)C3)cc1 (stereo in doubt) [Compound 178, 2-(4-methoxyphenyl)-6-[2-(6-methyloctahydro-2H-pyrido[1,2-a]pyrazin-2-yl)-2-oxoethyl]-5,6,7,8-tetrahydro-1,6-naphthyridine]",< 1
9,"CC(=O)Cc1ccc2c(c1)CCN(CC(=O)N1CCN(C3CCC3)CC1)C2 [Compound 249, 1-{2-[2-(4-cyclobutylpiperazin-1-yl)-2-oxoethyl]-1,2,3,4-tetrahydroisoquinolin-6-yl}acetone]",< 1
10,"CC1CN(C(=O)CN2CCc3nc(-c4cscn4)sc3C2)CCN1C1CCC1 (stereo not drawn) [Compound 113, 5-[2-(4-cyclobutyl-3-methylpiperazin-1-yl)-2-oxoethyl]-2-(1,3-thiazol-4-yl)-4,5,6,7-tetrahydro[1,3]thiazolo [5,4-c]pyridine]",< 1
11,"CC1CCCN1C(=O)c1ccc2c(c1)CCN(CC(=O)N1CCN(C3CCC3)CC1)C2 (stereo not drawn) [Compound 87, 2-[2-(4-cyclobutylpiperazin-1-yl)-2-oxoethyl]-6-[(2-methylpyrrolidin-1-yl)carbonyl]-1,2,3,4-tetrahydroisoquinoline]",< 1
12,"O=C(CN1CCc2cc(-c3cscn3)ccc2C1)N1CCN(C2CCC2)CC1 [Compound 119, 2-[2-(4-cyclobutylpiperazin-1-yl)-2-oxoethyl]-6-(1,3-thiazol-4-yl)-1,2,3,4-tetrahydroisoquinoline]",< 1

# Same assay, conditions: Table II; assay of Example 7
row,Structure (SMILES),Ki [µM]
1,"NC(=O)C1CCN(c2ncc3c(n2)CCN(CC(=O)N2CCN(C4CCC4)CC2)C3)CC1 [Compound 691, 1-{6-[2-(4-cyclobutylpiperazin-1-yl)-2-oxoethyl]-5,6,7,8-tetrahydropyrido[4,3-d]pyrimidin-2-yl}piperidine-4-carboxamide]",< 1

# Same assay, conditions: assay of Example 7; "*" in Ki of Table II
row,Structure (SMILES),Ki [µM]
1,"O=C(CN1CCc2nc(-c3ccc(Cl)cc3)sc2C1)N1CCN(C2CCC2)CC1 [Compound 296, 2-(4-chlorophenyl)-5-[2-(4-cyclobutylpiperazin-1-yl)-2-oxoethyl]-4,5,6,7-tetrahydro[1,3]thiazolo [5,4-c]pyridine]",< 1
2,"O=C(CN1CCc2nc(-c3cc(F)ccc3F)sc2C1)N1CCN(C2CCC2)CC1 [Compound 347, 5-[2-(4-cyclobutylpiperazin-1-yl)-2-oxoethyl]-2-(2,5-difluorophenyl)-4,5,6,7-tetrahydro[1,3]thiazolo [5,4-c]pyridine]",< 1
3,"O=C(CN1CCc2nc(-c3cccc(C(F)(F)F)c3)sc2C1)N1CCN(C2CCC2)CC1 [Compound 372, 5-[2-(4-cyclobutylpiperazin-1-yl)-2-oxoethyl]-2-[3-(trifluoromethyl)phenyl]-4,5,6,7-tetrahydro[1,3]thiazolo [5,4-c]pyridine]",< 1
4,"CSc1cccc(-c2nc3c(s2)CN(CC(=O)N2CCN(C4CCC4)CC2)CC3)c1 [Compound 320, 5-[2-(4-cyclobutylpiperazin-1-yl)-2-oxoethyl]-2-[3-(methylthio)phenyl]-4,5,6,7-tetrahydro[1,3]thiazolo [5,4-c]pyridine]",< 1
5,"COc1ccc(-c2nc3c(s2)CN(CC(=O)N2CCN(C4CCC4)CC2)CC3)cc1 [Compound 327, 5-[2-(4-cyclobutylpiperazin-1-yl)-2-oxoethyl]-2-(4-methoxyphenyl)-4,5,6,7-tetrahydro[1,3]thiazolo [5,4-c]pyridine]",< 1
6,"O=C(CN1CCc2nc(-c3cc(C(F)(F)F)ccc3Cl)sc2C1)N1CCN(C2CCC2)CC1 [Compound 374, 2-[2-chloro-5-(trifluoromethyl)phenyl]-5-[2-(4-cyclobutylpiperazin-1-yl)-2-oxoethyl]-4,5,6,7-tetrahydro[1,3]thiazolo [5,4-c]pyridine]",< 1
7,"O=C(CN1CCc2nc(-c3ccc(F)c(F)c3)sc2C1)N1CCN(C2CCC2)CC1 [Compound 349, 5-[2-(4-cyclobutylpiperazin-1-yl)-2-oxoethyl]-2-(3,4-difluorophenyl)-4,5,6,7-tetrahydro[1,3]thiazolo [5,4-c]pyridine]",< 1
8,"COc1ccc(-n2ncc3c2CCN(CC(=O)N2CCN(C4CCC4)CC2)C3)nn1 [Compound 290, 5-[2-(4-cyclobutylpiperazin-1-yl)-2-oxoethyl]-1-(6-methoxypyridazin-3-yl)-4,5,6,7-tetrahydro-1H-pyrazolo[4,3-c]pyridine]",< 1
9,"CCC(C)N1CCN(C(=O)CN2CCc3cc(-c4ccc(S(C)(=O)=O)cc4)ccc3C2)CC1 (stereo not drawn) [Compound 396, 2-[2-(4-sec-butylpiperazin-1-yl)-2-oxoethyl]-6-[4-(methylsulfonyl)phenyl]-1,2,3,4-tetrahydroisoquinoline]",< 1
10,"N#Cc1cccc(-c2nc3c(s2)CN(CC(=O)N2CCN(C4CCC4)CC2)CC3)c1 [Compound 367, 3-{5-[2-(4-cyclobutylpiperazin-1-yl)-2-oxoethyl]-4,5,6,7-tetrahydro[1,3]thiazolo [5,4-c]pyridin-2-yl}benzonitrile]",< 1
11,"CCOc1ccc(-c2nc3c(s2)CN(CC(=O)N2CCN(C4CCC4)CC2)CC3)cc1 [Compound 330, 5-[2-(4-cyclobutylpiperazin-1-yl)-2-oxoethyl]-2-(4-ethoxyphenyl)-4,5,6,7-tetrahydro[1,3]thiazolo [5,4-c]pyridine]",< 1
12,"COc1ccc(-c2nc3c(s2)CN(CC(=O)N2CCN(C4CCC4)CC2)CC3)c(C)c1 [Compound 335, 5-[2-(4-cyclobutylpiperazin-1-yl)-2-oxoethyl]-2-(4-methoxy-2-methylphenyl)-4,5,6,7-tetrahydro[1,3]thiazolo [5,4-c]pyridine]",< 1
